Among the data in patent US20180002319A1, “MACROCYCLIC PICOLINAMIDE COMPOUNDS WITH FUNGICIDAL ACTIVITY” (DOW AGROSCIENCES LLC, priority 2014, published 2018) are pest or weed control values, retold here.

Like-named read-outs stand apart in the source and are kept apart here.

The test system of one experiment is Zymoseptoria tritici. The experiment in a line: Leaf Blotch of Wheat (SEPTTR) fungicidal activity. It is filed as in vivo. Particulars: Low Volume application, 121.5 g/H, wheat leaf blotch. The method, then:
Example A: Evaluation of Fungicidal Activity: Leaf Blotch of Wheat (Zymoseptoria tritici; Bayer Code […]) Technical grades of materials were dissolved in acetone, which were then mixed with nine volumes of H2O containing 110 ppm Triton X-100. The fungicide solutions were applied onto wheat seedlings using an automated booth sprayer to run-off. All sprayed plants were allowed to air dry prior to further handling. All fungicides were evaluated using the aforementioned method for their activity vs. all target diseases, unless stated otherwise. Wheat leaf blotch and brown rust activity were also evaluated using track spray applications, in which case the fungicides were formulated as EC formulations, containing 0.1% Trycol 5941 in the spray solutions. Wheat plants (variety Yuma) were grown from seed in a greenhouse in 50% mineral soil/50% soil-less Metro mix until the first leaf was fully emerged, with 7-10 seedlings per pot. These plants were inoculated with an aqueous spore suspension of Zymoseptoria tritici either prior to or after fungicide treatments. After inoculation the plants were kept in 100% relative humidity (one day in a dark dew chamber followed by two to three days in a lighted dew chamber at 20° C.) to permit spores to germinate and infect the leaf. The plants were then transferred to a greenhouse set at 20° C. for disease to develop. When disease symptoms were fully expressed on the 1st leaves of untreated plants, infection levels were assessed on a scale of 0 to 100 percent disease severity. Percent disease control was calculated using the ratio of disease severity on treated plants relative to untreated plants.

Another experiment relates to Puccinia triticina. The experiment in a line: Wheat Brown Rust (PUCCRT) fungicidal activity. Particulars: Low Volume application, 121.5 g/H. It is filed as in vivo. The method, then:
Technical grades of materials were dissolved in acetone, which were then mixed with nine volumes of H2O containing 110 ppm Triton X-100. The fungicide solutions were applied onto wheat seedlings using an automated booth sprayer to run-off. All sprayed plants were allowed to air dry prior to further handling. All fungicides were evaluated using the aforementioned method for their activity vs. all target diseases, unless stated otherwise. Wheat leaf blotch and brown rust activity were also evaluated using track spray applications, in which case the fungicides were formulated as EC formulations, containing 0.1% Trycol 5941 in the spray solutions. Wheat plants (variety Yuma) were grown from seed in a greenhouse in 50% mineral soil/50% soil-less Metro mix until the first leaf was fully emerged, with 7-10 seedlings per pot. These plants were inoculated with an aqueous spore suspension of Zymoseptoria tritici either prior to or after fungicide treatments. After inoculation the plants were kept in 100% relative humidity (one day in a dark dew chamber followed by two to three days in a lighted dew chamber at 20° C.) to permit spores to germinate and infect the leaf. The plants were then transferred to a greenhouse set at 20° C. for disease to develop. When disease symptoms were fully expressed on the 1st leaves of untreated plants, infection levels were assessed on a scale of 0 to 100 percent disease severity. Percent disease control was calculated using the ratio of disease severity on treated plants relative to untreated plants. Example B: Evaluation of Fungicidal Activity: Wheat Brown Rust (Puccinia triticina; Bayer Code PUCCRT) Wheat plants (variety Yuma) were grown from seed in a greenhouse in 50% mineral soil/50% soil-less Metro mix until the first leaf was fully emerged, with 7-10 seedlings per pot. These plants were inoculated with an aqueous spore suspension of Puccinia triticina either prior to or after fungicide treatments. After inoculation the plants were kept in a dark dew room at 22° C. with 100% relative humidity overnight to permit spores to germinate and infect the leaf. The plants were then transferred to a greenhouse set at 24° C. for disease to develop. Fungicide formulation, application and disease assessment followed the procedures as described in the Example A.

[1] abbreviates: 24 h, 1 day protectant, read-out: SEPTTR disease control, 1DP (1 Day Protectant).
Setting [2] is: 24 h, 1 day protectant, read-out: PUCCRT disease control, 1DP (1 Day Protectant).
The mark [3] stands for this setting: 72 h, 3 day curative, read-out: PUCCRT disease control, 3DC (3 Day Curative).
Setting [4] is: 72 h, 3 day curative, read-out: SEPTTR disease control, 3DC (3 Day Curative).

Turning to `COc1ccnc(C(=O)N[C@H]2CCCC[C@H](CC3CCCC3)[C@@H](Oc3ccccc3)[C@H](C)OC2=O)c1OC(C)=O` [Compound 52], the pest or weed control at 121.5 g/ha was more than 80% in the experiment on Zymoseptoria tritici (setting [1]), more than 80% in the experiment with Puccinia triticina (setting [2]) and less than 80% with Puccinia triticina (setting [3]).
As for `C=CCO[C@@H]1[C@@H](CC2CCCC2)CCCC[C@H](NC(=O)c2nccc(OC)c2OCOC(C)=O)C(=O)O[C@H]1C` [Compound 53], the pest or weed control at 121.5 g/ha in the experiment with Zymoseptoria tritici (setting [4]) and with Puccinia triticina (setting [2]) was less than 80% throughout.
In the case of `COc1ccnc(C(=O)N[C@H]2CCCC[C@H](CC3CCCC3)[C@@H](OC(=O)C(C)C)[C@H](C)OC2=O)c1OCOC(C)=O` [Compound 54], the pest or weed control at 121.5 g/ha in the experiment with Zymoseptoria tritici (setting [1]) was more than 80%; with Puccinia triticina (setting [2]), more than 80%; in the experiment with Puccinia triticina (setting [3]), less than 80%.
With `CCOCC(=O)OCOc1c(OC)ccnc1C(=O)N[C@H]1CCCC[C@H](CC2CCCC2)[C@@H](OC(=O)C(C)C)[C@H](C)OC1=O` [Compound 55], the pest or weed control at 121.5 g/ha was less than 80% in the experiment with Zymoseptoria tritici (setting [1]), less than 80% in the experiment with Zymoseptoria tritici (setting [4]), more than 80% in the experiment on Puccinia triticina (setting [2]) and less than 80% in the experiment on Puccinia triticina (setting [3]).
With `COc1ccnc(C(=O)N[C@H]2CCCC[C@H](CC3CCCC3)[C@@H](OC(=O)C(C)C)[C@H](C)OC2=O)c1OC(C)=O` [Compound 56, (2S,3R,4R,9S)-9-(3-acetoxy-4-methoxypicolinamido)-4-(cyclopentylmethyl)-2-methyl-10-oxooxecan-3-yl isobutyrate], the pest or weed control at 121.5 g/ha in the experiment on Zymoseptoria tritici (setting [1]) was more than 80%; with Zymoseptoria tritici (setting [4]) it was less than 80%; in the experiment on Puccinia triticina (setting [2]), more than 80%; with Puccinia triticina (setting [3]) it was less than 80%.
In the case of `CCCO[C@@H]1[C@@H](CC2CCCC2)CCCC[C@H](NC(=O)c2nccc(OC)c2OCOC(C)=O)C(=O)O[C@H]1C` [Compound 57], the pest or weed control at 121.5 g/ha in the experiment with Zymoseptoria tritici (setting [1]) is less than 80%; in the experiment with Puccinia triticina (setting [2]) it was more than 80%; with Puccinia triticina (setting [3]), less than 80%.
Turning to `CCCO[C@@H]1[C@@H](CC2CCCC2)CCCC[C@H](NC(=O)c2nccc(OC)c2OC(C)=O)C(=O)O[C@H]1C` [Compound 58], the pest or weed control at 121.5 g/ha with Zymoseptoria tritici (setting [1]) is less than 80%; with Zymoseptoria tritici (setting [4]), less than 80%; in the experiment on Puccinia triticina (setting [2]) it was more than 80%; in the experiment on Puccinia triticina (setting [3]), less than 80%.
In the case of `COc1ccnc(C(=O)N[C@H]2CCCC[C@H](CC3CCCC3)[C@@H](OC)[C@H](C)OC2=O)c1OC(C)=O` [Compound 59], the values for the pest or weed control at 121.5 g/ha with Zymoseptoria tritici (setting [1]), in the experiment with Puccinia triticina (setting [2]) and in the experiment with Puccinia triticina (setting [3]) were less than 80%, more than 80% and more than 80%, respectively.
For the compound `COc1ccnc(C(=O)N[C@H]2CCCC[C@H](Cc3ccccc3)[C@@H](OC(=O)C(C)C)[C@H](C)OC2=O)c1OCOC(C)=O` [Compound 60], the pest or weed control at 121.5 g/ha in the experiment on Zymoseptoria tritici (setting [1]), in the experiment on Zymoseptoria tritici (setting [4]), in the experiment with Puccinia triticina (setting [2]) and in the experiment with Puccinia triticina (setting [3]) was more than 80% each time.
Regarding `COc1ccnc(C(=O)N[C@H]2CCCC[C@H](CC3CCCC3)[C@@H](OC)[C@H](C)OC2=O)c1OCOC(C)=O` [Compound 61], the pest or weed control at 121.5 g/ha with Zymoseptoria tritici (setting [1]) was less than 80%; in the experiment with Zymoseptoria tritici (setting [4]), less than 80%; with Puccinia triticina (setting [2]), more than 80%; in the experiment on Puccinia triticina (setting [3]), more than 80%.
Consider `COc1ccnc(C(=O)N[C@H]2CCCC[C@H](Cc3ccccc3)[C@@H](Oc3ccccc3)[C@H](C)OC2=O)c1OCOC(C)=O` [Compound 62], for which the pest or weed control at 121.5 g/ha was more than 80% in the experiment on Zymoseptoria tritici (setting [1]), more than 80% in the experiment on Zymoseptoria tritici (setting [4]), more than 80% in the experiment with Puccinia triticina (setting [2]) and less than 80% with Puccinia triticina (setting [3]).
Take `COc1ccnc(C(=O)N[C@H]2CCCC[C@H](Cc3ccccc3)[C@@H](Oc3ccccc3)[C@H](C)OC2=O)c1OC(C)=O` [Compound 64]: the pest or weed control at 121.5 g/ha in the experiment with Zymoseptoria tritici (setting [1]) was more than 80%; in the experiment on Zymoseptoria tritici (setting [4]), more than 80%; with Puccinia triticina (setting [2]), more than 80%; with Puccinia triticina (setting [3]), less than 80%.
Turning to `COc1ccc(C[C@H]2CCOC[C@H](NC(=O)c3nccc(OC)c3OC(C)=O)C(=O)O[C@@H](C)[C@@H]2Oc2ccccc2)cc1` [Compound 65], the pest or weed control at 121.5 g/ha was more than 80% with Zymoseptoria tritici (setting [1]), less than 80% in the experiment with Zymoseptoria tritici (setting [4]), more than 80% in the experiment on Puccinia triticina (setting [2]) and less than 80% in the experiment on Puccinia triticina (setting [3]).
Turning to `COc1ccc(C[C@H]2CCOC[C@H](NC(=O)c3nccc(OC)c3OCOC(C)=O)C(=O)O[C@@H](C)[C@@H]2Oc2ccccc2)cc1` [Compound 66], the pest or weed control at 121.5 g/ha is more than 80% in the experiment with Zymoseptoria tritici (setting [1]), more than 80% in the experiment on Zymoseptoria tritici (setting [4]), more than 80% in the experiment on Puccinia triticina (setting [2]) and less than 80% in the experiment with Puccinia triticina (setting [3]).
Regarding `COc1ccc(C[C@H]2CCOC[C@H](NC(=O)c3nccc(OC)c3OCOC(=O)C(C)C)C(=O)O[C@@H](C)[C@@H]2Oc2ccccc2)cc1` [Compound 67, ((4-methoxy-2-(((3S,8S,9R,10S)-8-(4-methoxybenzyl)-10-methyl-2-oxo-9-phenoxy-1,5-dioxecan-3-yl)carbamoyl)pyridin-3-yl)oxy)methyl isobutyrate], the pest or weed control at 121.5 g/ha is more than 80% in the experiment on Zymoseptoria tritici (setting [1]), less than 80% in the experiment on Zymoseptoria tritici (setting [4]), more than 80% in the experiment with Puccinia triticina (setting [2]) and less than 80% in the experiment with Puccinia triticina (setting [3]).
With `COc1ccc(C[C@H]2CCOC[C@H](NC(=O)c3nccc(OC)c3OC(=O)C(C)C)C(=O)O[C@@H](C)[C@@H]2Oc2ccccc2)cc1` [Compound 68], the pest or weed control at 121.5 g/ha was less than 80% with Zymoseptoria tritici (setting [1]), less than 80% in the experiment with Zymoseptoria tritici (setting [4]) and more than 80% in the experiment on Puccinia triticina (setting [2]).
For the compound `CC[C@H]1CCOC[C@H](NC(=O)c2nccc(OC)c2OCOC(C)=O)C(=O)O[C@@H](C)[C@@H]1Oc1ccccc1` [Compound 69], the pest or weed control at 121.5 g/ha in the experiment with Zymoseptoria tritici (setting [1]), in the experiment on Zymoseptoria tritici (setting [4]), in the experiment on Puccinia triticina (setting [2]) and in the experiment on Puccinia triticina (setting [3]) was more than 80% each time.
For the compound `CC[C@H]1CCOC[C@H](NC(=O)c2nccc(OC)c2OCOC(C)=O)C(=O)O[C@@H](C)[C@@H]1OCC(C)C` [Compound 70], the pest or weed control at 121.5 g/ha with Zymoseptoria tritici (setting [1]) was more than 80%; in the experiment with Zymoseptoria tritici (setting [4]) it was less than 80%; in the experiment on Puccinia triticina (setting [2]) it was more than 80%; with Puccinia triticina (setting [3]) it was more than 80%.
As to `COc1ccnc(C(=O)N[C@H]2COCC[C@H](Cc3ccc(F)cc3)[C@@H](Oc3ccccc3)[C@H](C)OC2=O)c1OC(C)=O` [Compound 71], the pest or weed control at 121.5 g/ha in the experiment with Zymoseptoria tritici (setting [1]), in the experiment with Zymoseptoria tritici (setting [4]), with Puccinia triticina (setting [2]) and with Puccinia triticina (setting [3]) was more than 80% each time.
As to `COc1ccnc(C(=O)N[C@H]2COCC[C@H](Cc3ccc(F)cc3)[C@@H](Oc3ccccc3)[C@H](C)OC2=O)c1OCOC(C)=O` [Compound 72], the pest or weed control at 121.5 g/ha in the experiment with Zymoseptoria tritici (setting [1]), in the experiment with Zymoseptoria tritici (setting [4]), in the experiment with Puccinia triticina (setting [2]) and with Puccinia triticina (setting [3]) was more than 80% each time.
In the case of `COc1ccnc(C(=O)N[C@H]2COCC[C@H](Cc3ccc(F)cc3)[C@@H](Oc3ccccc3)[C@H](C)OC2=O)c1OCOC(=O)C(C)C` [Compound 73], the pest or weed control at 121.5 g/ha in the experiment on Zymoseptoria tritici (setting [1]), in the experiment on Zymoseptoria tritici (setting [4]), in the experiment with Puccinia triticina (setting [2]) and in the experiment on Puccinia triticina (setting [3]) was more than 80% in each case.
